# Measurements from ChEMBL document CHEMBL2021814, “Fragment-based and structure-guided discovery and optimization of Rho kinase inhibitors” (J Med Chem, 2012).
# Columns and labels:
# [1] = molecular target: Rho-associated protein kinase 1 (Homo sapiens, UniProt Q13464); assay: Inhibition of human His-puritin-tagged ROCK1 expressed in Sf9 cells after 1 hr by FRET-based enzyme-coupled assay
# [2] = molecular target: Rho-associated protein kinase 2 (Homo sapiens, UniProt O75116); assay: Inhibition of ROCK2 after 1 hr by FRET-based enzyme-coupled assay
# Chain of Rho-associated protein kinase 2 (O75116 whole entry): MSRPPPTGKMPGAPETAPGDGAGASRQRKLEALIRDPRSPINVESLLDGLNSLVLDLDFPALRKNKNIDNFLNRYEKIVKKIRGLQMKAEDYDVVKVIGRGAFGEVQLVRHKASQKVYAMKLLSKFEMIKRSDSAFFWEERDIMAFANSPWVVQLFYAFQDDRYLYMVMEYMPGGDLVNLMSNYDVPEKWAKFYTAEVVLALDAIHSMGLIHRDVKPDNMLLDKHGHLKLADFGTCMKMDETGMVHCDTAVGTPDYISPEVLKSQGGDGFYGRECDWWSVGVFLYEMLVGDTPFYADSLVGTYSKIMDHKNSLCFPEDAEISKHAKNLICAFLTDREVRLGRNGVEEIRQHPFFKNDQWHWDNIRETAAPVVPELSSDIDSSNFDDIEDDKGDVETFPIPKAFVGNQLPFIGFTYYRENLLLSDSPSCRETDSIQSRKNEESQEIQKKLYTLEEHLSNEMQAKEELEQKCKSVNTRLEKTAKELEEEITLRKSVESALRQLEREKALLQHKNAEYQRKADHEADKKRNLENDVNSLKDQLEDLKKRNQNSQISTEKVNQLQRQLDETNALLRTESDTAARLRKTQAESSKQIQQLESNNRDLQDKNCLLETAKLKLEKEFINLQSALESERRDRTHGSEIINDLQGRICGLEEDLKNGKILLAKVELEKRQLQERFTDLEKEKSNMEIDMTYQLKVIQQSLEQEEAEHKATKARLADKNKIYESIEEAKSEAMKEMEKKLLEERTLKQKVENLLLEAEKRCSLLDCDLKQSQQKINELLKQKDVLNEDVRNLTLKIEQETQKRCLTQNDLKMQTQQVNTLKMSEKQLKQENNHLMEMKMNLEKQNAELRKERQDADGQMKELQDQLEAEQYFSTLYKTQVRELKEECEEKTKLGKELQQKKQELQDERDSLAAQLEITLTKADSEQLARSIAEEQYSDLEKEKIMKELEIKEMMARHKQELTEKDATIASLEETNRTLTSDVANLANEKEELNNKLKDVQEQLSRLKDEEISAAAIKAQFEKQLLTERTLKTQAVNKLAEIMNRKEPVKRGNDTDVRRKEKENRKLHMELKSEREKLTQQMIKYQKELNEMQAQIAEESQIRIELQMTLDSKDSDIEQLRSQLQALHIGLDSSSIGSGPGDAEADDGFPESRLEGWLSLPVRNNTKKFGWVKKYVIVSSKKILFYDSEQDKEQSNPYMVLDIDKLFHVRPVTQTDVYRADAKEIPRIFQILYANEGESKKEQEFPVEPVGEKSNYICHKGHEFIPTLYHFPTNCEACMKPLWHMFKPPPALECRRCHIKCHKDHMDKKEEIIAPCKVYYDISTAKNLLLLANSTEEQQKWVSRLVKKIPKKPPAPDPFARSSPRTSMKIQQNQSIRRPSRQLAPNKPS
# Chain of Rho-associated protein kinase 1 (Q13464 whole entry): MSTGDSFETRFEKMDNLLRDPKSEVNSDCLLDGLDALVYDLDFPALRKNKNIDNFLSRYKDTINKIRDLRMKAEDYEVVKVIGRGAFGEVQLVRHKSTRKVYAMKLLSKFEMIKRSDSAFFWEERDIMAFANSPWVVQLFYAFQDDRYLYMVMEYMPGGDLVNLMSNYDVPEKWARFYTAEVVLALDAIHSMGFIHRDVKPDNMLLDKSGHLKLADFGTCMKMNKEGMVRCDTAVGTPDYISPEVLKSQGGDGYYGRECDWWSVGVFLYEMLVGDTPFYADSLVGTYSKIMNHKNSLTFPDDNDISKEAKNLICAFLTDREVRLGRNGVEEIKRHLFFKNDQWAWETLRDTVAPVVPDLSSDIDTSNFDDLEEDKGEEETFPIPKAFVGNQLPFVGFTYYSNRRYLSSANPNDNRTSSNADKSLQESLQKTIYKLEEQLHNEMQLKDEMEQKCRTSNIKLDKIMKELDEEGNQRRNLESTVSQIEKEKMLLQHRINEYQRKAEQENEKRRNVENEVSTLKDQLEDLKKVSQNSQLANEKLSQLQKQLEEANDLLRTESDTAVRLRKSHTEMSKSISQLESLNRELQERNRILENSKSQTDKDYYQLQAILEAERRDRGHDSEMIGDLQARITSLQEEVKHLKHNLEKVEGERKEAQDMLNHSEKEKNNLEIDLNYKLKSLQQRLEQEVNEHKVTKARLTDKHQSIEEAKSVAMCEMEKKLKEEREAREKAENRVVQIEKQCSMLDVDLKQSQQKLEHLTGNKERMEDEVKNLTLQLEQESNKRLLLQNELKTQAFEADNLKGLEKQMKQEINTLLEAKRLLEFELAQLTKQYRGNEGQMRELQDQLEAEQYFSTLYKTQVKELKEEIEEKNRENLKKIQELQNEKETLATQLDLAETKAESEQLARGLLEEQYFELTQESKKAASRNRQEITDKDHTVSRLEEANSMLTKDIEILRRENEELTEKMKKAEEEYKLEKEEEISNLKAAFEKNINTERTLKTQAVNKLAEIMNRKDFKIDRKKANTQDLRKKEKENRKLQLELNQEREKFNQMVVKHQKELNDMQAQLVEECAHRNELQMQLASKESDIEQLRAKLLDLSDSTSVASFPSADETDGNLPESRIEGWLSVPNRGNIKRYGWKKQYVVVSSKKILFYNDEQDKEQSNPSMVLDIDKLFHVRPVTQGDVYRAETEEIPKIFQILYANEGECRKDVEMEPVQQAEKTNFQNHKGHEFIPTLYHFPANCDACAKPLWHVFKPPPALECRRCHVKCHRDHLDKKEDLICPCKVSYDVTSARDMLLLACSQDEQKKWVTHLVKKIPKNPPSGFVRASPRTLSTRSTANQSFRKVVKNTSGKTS
Structure (SMILES),IC50 [1],IC50 [2]
O=C(Nc1ccncc1)c1cnccc1-c1ccc(F)cc1,> 400 µM,> 400 µM
O=C(Nc1ccncc1)c1cncc(-c2ccc(F)cc2)c1,> 400 µM,> 400 µM
